In the experiment the test system is SNB-19 viability, CellTiter-Glo ATP luminescence, 8-48 h. Nature of the experiment: cytotoxicity in SNB-19 cells – cell-based, CellTiter-Glo ATP luminescence, 8-48 h, dry powder, mechanism study for HRAS target identification, late-stage follow-up (AID 720611). Background: Cellular ATP, detected with luciferase, serves as a proxy for viable cell number.

Usually AC50 stands for the concentration giving half of the maximal activity seen. Low values mean activity at low concentration, high ones activity only at high concentration.

With `CC(C)(C)OC(=O)NCCOCCOCCOc1ccc(N(C(=O)CCl)C(C(=O)NCCc2ccccc2)c2cccs2)cc1Cl` (centres undefined), the AC50 (measured here: 8 h treatment) turned out to be 1.41 µM, the half-maximal activity concentration (AC50) (measured here: 24 h treatment) came out at 2.5 µM and the half-maximal activity concentration (AC50) (measured here: 48 h treatment) was determined as 1.45 µM.
As to `C#CCCCC(=O)NCCOCCOCCOc1ccc(N(C(=O)CCl)C(C(=O)NCCc2ccccc2)c2cccs2)cc1Cl` (centres undefined), the AC50 turned out to be 5.75 µM (measured here: 8 h treatment), 4.27 µM (measured here: 24 h treatment) and 3.6 µM (measured here: 48 h treatment).
As for `COc1ccc(N(C(=O)CCl)C(C(=O)NCCc2ccccc2)c2cccs2)cc1Cl` (centres undefined), the half-maximal activity concentration (AC50) is, setting by setting: (measured here: 8 h treatment) 0.978 µM; (measured here: 24 h treatment) 1.3 µM; (measured here: 48 h treatment) 1.25 µM.
